Paper PMC8318206 (ACS catalysis, 2020)
pKd: −log10 of the molar value. Where “and” joins values, the source holds several entries; their conditions need not be identical. Identical values can stand only once. Entries after “also recorded” stand apart in the source; their conditions may differ. Like-named read-outs stand apart in the source and are kept apart here.

Key:
[1] = Solubility in H2O; type: physicochemical; conditions: water
[2] = molecular target: T1, P450cam (Pseudomonas putida, UniProt P00183); test: Stopped-flow ligand binding kinetics; conditions: for Binding rate measurable by stopped-flow (ΔA390-A420): dead time 2 ms; for Dominant binding mechanism: from dependence of eigenvalues on ligand and P450cam concentration
[3] = molecular target: T1, P450cam; conditions: cited from earlier work
[4] = molecular target: T1, P450cam; test: Catalytic activity: NADH oxidation with Pdx and PdR; type: biochemical; conditions: for Rate/Kd (specificity constant): NADH oxidation rate divided by Kd
[5] = molecular target: T1, P450cam; test: Steady-state substrate binding titrations; conditions: for Reversal of the high-spin spectral change at high ligand concentration: camphor up to 2 mM
[6] = molecular target: T1, P450cam; conditions: reported previously; cited from earlier work
[7] = system: P450tcu; conditions: 5-exo hydroxylation; cited from earlier work
[8] = molecular target: T1, P450cam; test: Estimation of koff for the P450cam·camphor complex by metyrapone trapping; type: binding
[9] = system: P450cam·Pdx complex; conditions: ref Hollingsworth et al., 46; cited from earlier work
[10] = eigenvalues vs camphor concentration
[11] = fit to λ = kf + kr·S/(Kd + S), induced fit model
[12] = 20 mM potassium MOPS (pH 7.4), 200 mM KCl

Compound	solubility [1] [µM]	Binding rate measurable by stopped-flow (ΔA390-A420) [2]	NADH coupling [3] [%]	Rate/Kd (specificity constant) [4] [M⁻¹ s⁻¹]	pKd [5]	pKd [6]	Dominant binding mechanism [2]	Specificity constant (rate/Kd) ([3]; reported by others, ref 54) [M⁻¹ s⁻¹]	% relative to camphor (Rate/Kd) [4] [%]	Reversal of the high-spin spectral change at high ligand concentration [5, 12]	also measured
O=C1CC2CC[C@H]1C2 [norcamphor]	≥ 50000	changes could not be observed	15	70000	3.60	3.46	–	–	–	–	–
O=C1C2CC3CC(C2)CC1C3 [2-adamantanone]	≥ 2000	–	–	1.3e+06	5.57	4.47 and 4.35	conformational selection	240000	19	–	Exponential of binding ([2]; 2 μM 2-adamantanone and 1 μM P450cam): 72 s⁻¹; Exponential of binding ([2]; 2 μM 2-adamantanone and 10 μM P450cam): 82 s⁻¹; kobs of binding ([2]; 2 μM P450cam and 4 μM 2-adamantanone): 78 ± 2 s⁻¹; Oxidation rate ([3]; ref White et al., 54): ~ 1 s^−1; Oxidation rate ([3]; ref White et al., 54, listed as 2-Adamantone): 1 s⁻¹
d-(+)-camphor	–	–	–	7e+06	–	–	induced fit mechanism	340000	100	no reversal of the high-spin spectral change was observed; also recorded: did not show any evidence for reversal	kcat [7]: ~ 10 s^−1; koff (k-1) of the P450cam·camphor complex ([8]; 2 μM P450cam, 10 μM camphor mixed with 2 mM metyrapone, KinTek Explorer fit): 15 s⁻¹; kon in the minimal kinetic model ([8]; fit with koff = 15 s^−1 and Kd = […] μM): 1.5e+07 M⁻¹ s⁻¹; Increase of the Kd of a P450cam·Pdx complex in the presence of camphor [9]: 2 fold; Eigenvalue λ of binding ([2]; 6 μM P450cam mixed with 2 μM camphor): 69 ± 2 s⁻¹; Intercept of linear regression of eigenvalues (koff, 2-state system) [2, 10]: 35 ± 4 s⁻¹; Slope of linear regression of eigenvalues (second-order kon, 2-state system) [2, 10]: 2.4 (± 0.3) × 10^6 M^−1 s^−1 and 2.4 (± 0.3) M^−1 s^−1; kf (kforward), forward rate constant following camphor binding [2, 11]: 112 s⁻¹ and 112 ± 49 s⁻¹; kr (kreverse), reverse rate constant [2, 11]: 28 s⁻¹ and 28 ± 7 s⁻¹; kcat ([3]; Km based on O2 as co-substrate): 55 to 66 s⁻¹; Rate of 5-exo hydroxylation [3]: > 10 s⁻¹; Specificity constant (rate/Kd) ([3]; reported by others, ref 57): 1.6e+07 M⁻¹ s⁻¹; Rate on the basis of NADH oxidation ([3]; typically reported): 7 to 14 s⁻¹
(+)-α-pinene	–	–	23	–	–	5.96	conformational selection	–	–	–	kobs of binding ([2]; 2 μM P450cam and 30 μM (+)-α-pinene): 81 ± 3 s⁻¹; Specificity constant (rate/Kd) ([3]; based on NADH oxidation): 1.3e+06 M⁻¹ s⁻¹; Specificity constant (rate/Kd) ([3]; based on product formation): 300000 M⁻¹ s⁻¹; Oxidation rate ([3]; ref Bell et al., 37): 0.3 s⁻¹; pKd ([5]; 20 mM potassium MOPS (pH 7.4), 200 mM KCl, absence of Pdx, 23 °C): 5.47
CC(C)(C(=O)c1cccnc1)c1cccnc1 [metyrapone]	–	–	–	–	–	–	–	–	–	–	First-order rate of binding to ligand-free P450cam (k2) ([8]; 2 mM metyrapone (final)): 18.9 s⁻¹
CC1(C)CC(=O)CC(C)(C)C1 [3,3,5,5-tetramethylcyclohexanone]	≥ 2000	changes could not be observed	–	40000	5.30	5.46	–	–	0.6	did reverse the spin state change at higher concentrations	–
